Here are results for five compounds from patent US20060052582A1, “Identification of inhibitors of mitosis” (priority 2002, published 2006).

One series concerns p70S6K. Nature of the series: Activity of endogenous p70S6K immunoprecipitated from H4-II-E-C3 hepatoma cells. The format is cell-based, rat. Conditions: for IC50: insulin-stimulated H4 cells, insulin plus increasing inhibitor concentrations for 30 minutes, read-out: IC50 for inhibition of p70S6K activity. The protocol: (§1) Endogenous Nek6 polypeptide was immunoprecipitated from lysates of rat H4-II-E-C3 hepatoma cells following prior treatment for varying times (min) with 100 nM insulin (FIG. 12B), or insulin plus increasing concentrations of either wortmannin (FIG. 12C) or rapamycin (FIG. 12D) for 30 minutes. Nek6 kinase activity was measured using GST p70S6K ΔCT104 (Thr252Ala) as substrate (see, text for details). The activity of endogenous p70S6K αI/II, immunoprecipitated from the same lysates, was measured using a synthetic peptide substrate. Kinase activities are expressed as either fold increase in baseline activity (as in FIG. 12B; open circles show Nek6 activity; filled squares show p70S6K activity) or as histograms depicting the percent activity remaining for Nek6 (filled bars) or p70S6K (open bars) (as in FIGS. 12C and 12D).
The regulation of endogenous Nek6 activity in vivo was examined. An affinity purified anti-Nek6 peptide antibody raised against a polypeptide comprising an amino terminal murine Nek6 peptide AGQPSHMPHGGSPN (SEQ ID NO:30) conjugated to KLH via a cysteine residue as described above, gave highly specific immunoblots and was capable of modest immunoprecipitation of the endogenous Nek6 polypeptide, although at very low efficiency. Thus far, useful antibodies reactive with endogenous Nek7 have not been obtained. Nek6 immunoreactivity was evident in several commonly used mammalian cell lines including COS7 cells (FIG. 12A). […] Moreover, Nek6 had been isolated as a candidate p70S6 Kinase-Thr412 kinase, and insulin regulation of endogenous p70S6 Kinase (also referred to as p70S6K) had previously been characterized in this cell line (see, Price et al., Proc. Natl. Acad. Sci. USA, 87: 7944-7948 (1990)). Insulin generated a rapid, fifteen-fold activation of endogenous p70S6Kinase in serum-deprived H4 cells; under these conditions, however, no change occurred in the basal activity of immunoprecipitated endogenous Nek6 (FIG. 12B). […] The specific activity of Nek6 in H4 cells is, however, sensitive to serum withdrawal and declines progressively by 80% over 48 hours (FIG. 12E). […]

The next series relates to BHK cells. Nature of the series: Leptomycin B treatment, Nercc localization in transfected BHK cells. The format is cell-based, hamster. The protocol:
(§2) Cells grown on coverslips were rinsed with PBS, fixed in methanol at −20° C. for 15 min, rinsed twice with PBS and incubated for 30 min at room temperature with the appropriate dilution of primary antibody in PBS. To visualize endogenous Nercc, affinity purified anti-Nercc peptide antibodies (N1 and C1) were employed at 10 μg/ml. Microtubules were visualized with a α/β-tubulin specific antibody. Coverslips were washed with PBS, and incubated with labeled secondary antibodies from corresponding species in appropriate combination-fluorescein or rhodamine X-conjugated donkey anti-rabbit, Cy2 or rhodamine X-conjugated donkey anti-mouse (each at 1:450). Incubation was terminated with a rinse in PBS, and the coverslips were mounted on a microscope slide. For immunodetection blocking, Nercc1 C1- or N1-antibody was incubated for 30 min at 37° C. with a 15-fold molar excess of immunizing peptide. After centrifugation at 12,000× g for 10 min, the mixture was used for immunoblotting or immunocytochemistry, as indicated. To examine the effects of Leptomycin B treatment on Nercc localization, HeLa or BHK21 cells were grown to subconfluency on 25 mm round glass coverslips in DMEM supplemented with 10% fetal bovine serum and penicillin-streptomycin. BHK21 cells were transfected (Fugene, Roche Molecular Biochemicals) with the wild type FLAG Nercc; medium was replaced after 18 hours (h). […]

For a further series, the system named is HeLa cells. Nature of the series: Leptomycin B treatment, endogenous Nercc localization in HeLa cells. Format: cell-based, human. How it is done: as §2
The test system of series [1] is Nek6. Nature of the series: Nek6 kinase assay in vitro with p70S6K ΔCT104 as substrate. Format: biochemical, human. How it is done: Transiently expressed FLAG Nek6 was incubated for 1 hour at 4° C. alone or with increasing quantities of either purified prokaryotic recombinant GST (lanes 6-8) or prokaryotic recombinant GST Nercc1 (732-979) (lanes 2-5). Nek6 activity was assayed using p70S6K ΔCT104 as substrate. Upper panel: mean±S.E.M. percent of control Nek6 activity. Lower panels: ^32P autoradiography, Coomassie stain of the GST Nercc1 (732-979) or GST proteins, and western blot of the FLAG Nek6 wild type.
Sequence of Nek6 (Q9HC98 whole entry): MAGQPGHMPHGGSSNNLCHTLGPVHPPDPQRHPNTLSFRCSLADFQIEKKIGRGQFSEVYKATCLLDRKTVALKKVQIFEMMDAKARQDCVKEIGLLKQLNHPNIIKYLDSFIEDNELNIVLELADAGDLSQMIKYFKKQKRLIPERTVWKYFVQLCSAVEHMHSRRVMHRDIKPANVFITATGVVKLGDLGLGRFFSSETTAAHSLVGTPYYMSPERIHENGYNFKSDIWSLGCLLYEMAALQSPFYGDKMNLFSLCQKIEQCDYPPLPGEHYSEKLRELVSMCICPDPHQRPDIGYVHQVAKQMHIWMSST
Immunoprecipitates (IP) of recombinant Nek6 (using anti-FLAG or anti-myc antibodies) or endogenous Nek6 were washed three times in the extraction buffer containing 0.5 M LiCl, and twice in kinase buffer (50 mM MOPS pH 7.4, 10 mM MgCl2, 2 mM EGTA, 20 mM β-glycerophosphate). Kinase assays were performed in 30 μl kinase buffer containing 1.5 μg GST-p70S6K ΔCT104 (Thr252Ala) or MBP (0.2 mg/ml) and initiated by addition of [γ-^32P] ATP (5 μM final concentration at 4000 cpm/pmol). Reactions were incubated for 10 minutes at 30° C. and terminated by the addition of 4×SDS sample buffer. Kinase mixtures were resolved by SDS-PAGE, transferred to PVDF membrane, and Nek6 phosphotransferase activity determined by excising Coomassie stained bands corresponding to the substrate and measuring radioactive content by Cerenkov scintillation counting.

The subject of series [2] is Nek6. The series is described as follows: Activity of endogenous Nek6 immunoprecipitated from H4-II-E-C3 hepatoma cells. The format is cell-based, rat. The note with it: serum-deprived H4 cells; 100 nM insulin. How it is done:
as §1
Immunoprecipitates (IP) of recombinant Nek6 (using anti-FLAG or anti-myc antibodies) or endogenous Nek6 were washed three times in the extraction buffer containing 0.5 M LiCl, and twice in kinase buffer (50 mM MOPS pH 7.4, 10 mM MgCl2, 2 mM EGTA, 20 mM β-glycerophosphate). […] Kinase mixtures were resolved by SDS-PAGE, transferred to PVDF membrane, and Nek6 phosphotransferase activity determined by excising Coomassie stained bands corresponding to the substrate and measuring radioactive content by Cerenkov scintillation counting. […]

On to `COC[C@H]1OC(=O)c2coc3c2[C@@]1(C)C1=C(C3=O)[C@@H]2CCC(=O)[C@@]2(C)C[C@H]1OC(C)=O` [wortmannin], for which the half-inhibitory concentration (IC50) in the series with p70S6K is about 0.03 µM.

For the compound `CCC(=C/[C@H](C)C/C=C/C(C)=C/[C@@H](C)C(=O)[C@@H](C)[C@H](O)[C@@H](C)C/C(C)=C/C(=O)O)/C=C/[C@@H]1OC(=O)C=C[C@@H]1C` [Leptomycin B], in the series with BHK cells (20 nM, 30 minutes incubation), the “endogenous RanBP1 fluorescence in the nucleus” value is listed as “increased dramatically”. In the series with BHK cells (2, 20 and 200 nM, 30 minutes to 24 hours), the “localization of wild type Nercc” value was “remained cytoplasmic”. Further, the “response of endogenous Nercc localization” value in the series with HeLa cells is given as “lack of response”.

As for “GST Nercc1 (732-979): fusion protein of GST linked to Nercc amino acids 732-979 of SEQ ID NO:2”, the “mode of inhibition of Nek6 catalytic activity” value with Nek6 [1] is reported as “noncompetitive”. Also, the “effect on enzymatic activity of preactivated wild type Nek6” value in the series on Nek6 [1] (concentrations far below those of p70S6K ΔCT104 substrate) was “substantial inhibition”.

Turning to `CO[C@H]1C[C@@H]2CC[C@@H](C)[C@@](O)(O2)C(=O)C(=O)N2CCCC[C@H]2C(=O)O[C@H]([C@H](C)C[C@@H]2CC[C@@H](O)[C@H](OC)C2)CC(=O)[C@H](C)/C=C(\C)[C@@H](O)[C@@H](OC)C(=O)[C@H](C)C[C@H](C)/C=C/C=C/C=C/1C` [rapamycin], the 50% inhibitory concentration (IC50) in the series on p70S6K was about 0.002 µM.

On to “Insulin: insulin, used at 100 nM to stimulate H4 cells”, for which the “activation of endogenous p70S6Kinase” value in the series with p70S6K (serum-deprived H4 cells, 100 nM insulin) was “fifteen-fold”. Further, the “change in basal activity of immunoprecipitated endogenous Nek6” value with Nek6 [2] is listed as “no change”.
